Here are results for three molecules from PMC8486263 (RSC Advances, 2020).

Some results are limits rather than exact numbers.

The test system of one data set is HIV-1 (strain LAI). The data set is described as follows: microbe, parasite or virus in culture. The class given is cell-based. Conditions: Human immunodeficiency virus 1, PBMC, 144 h; HIV-1 LAI, MOI 0.1, PHA/IL-2 stimulated human PBM cells, 6 days; read-out: anti-HIV-1 EC50.
The test system of another data set is HBV. In words: Antiviral assay against HBV in HepAD38 cells, real-time PCR for HBV DNA. Conditions: Hepatitis B virus, 168 h. The class given is cell-based. On the procedure:
HepAD38 cells[24] were seeded at 50 000 cells per well in collagen-coated 96-well plates. Test compounds or 3TC (control) were added to HepAD38 cells to a final concentration of 10 μM. Real-time PCR for HBV DNA lasted 7 days. On day 7, total DNA was purified from supernatant using commercially available kit (DNeasy 96 Blood & Tissue kit, Qiagen). The HBV DNA was amplified in a real-time PCR assay using LightCycler 480 (Roche) as described elsewhere.[23c] All samples were tested in triplicate. Analysis: the concentration of compound that inhibited HBV DNA replication by 50% (EC50) was determined by linear regression.
For orientation: Real-time PCR tracks product formation cycle by cycle.

Another data set is described as follows: in vitro. Conditions: African green monkey. The protocol:
These assays were performed in human PBM, T lymphoblast CEM-CCRF (CEM), African green monkey kidney (Vero) or human liver (HepG2) cells. Results represent means from triplicate wells.
These were performed in […] (PBM), T lymphoblast CEM-CCRF (CEM), African green monkey kidney (Vero) or human liver (HepG2) cells via MTT assay using the CellTiter 96®. Non-Radioactive Cell Proliferation (Promega) kit as previously described.[23c] Cytotoxicity was expressed as the concentration of test compounds that inhibited cell proliferation by 50% (IC50) and calculated using the Chou and Talalay method.[25]

Experimental for HIV-1 (strain LAI): The assay was performed as described previously,[23a,b] with some modifications described elsewhere.[23c] […] Supernatants were harvested, and HIV-1 RT was quantified. Median effective concentrations (EC50) were determined using described method.[23d]

A word on the EC50: it is the concentration giving half of the maximal effect. As to `Cc1cn([C@H]2C[C@H](N=[N+]=[N-])[C@@H](CO)O2)c(=O)[nH]c1=O` [AZT, 3′-azido-3′-deoxythymidine], the EC50 in the data set with HIV-1 (strain LAI) turned out to be 0.006 µM. The inhibition is the percentage by which the read-out fell short of the control. Take `Nc1ccn([C@@H]2CS[C@H](CO)O2)c(=O)n1` [Lamivudine]: the EC50 with HBV (7 days, HBV DNA in supernatant, read-out: anti-HBV EC50) is under 10 µM. In addition, testing at 10 µM in the data set on HBV (at 10 μM, day 7) gave an inhibition of 97%. The term IC50 denotes the point on the concentration scale where inhibition reaches its midpoint. Consider `C[C@@H]1C[C@@H]([C@H](O)CC2CC(=O)NC(=O)C2)C(=O)[C@@H](C)C1` [cycloheximide], for which the IC50 in the data set “in vitro” came out at 0.5 µM.
